# Results published in paper PMC7366380, “Discovery of a Potent and Selective Covalent Inhibitor and Activity-Based Probe for the Deubiquitylating Enzyme UCHL1, with Antifibrotic Activity” (Journal of the American Chemical Society, 2020).
# “And” between values parts separate entries of the source, which are not always exact repeats. Equal entries are not always repeated.
# Assays:
# [1] = biological target: T1, UCHL5 (Homo sapiens, UniProt Q9Y5K5); assay: biochemical
# T1 sequence (Q9Y5K5 1-329): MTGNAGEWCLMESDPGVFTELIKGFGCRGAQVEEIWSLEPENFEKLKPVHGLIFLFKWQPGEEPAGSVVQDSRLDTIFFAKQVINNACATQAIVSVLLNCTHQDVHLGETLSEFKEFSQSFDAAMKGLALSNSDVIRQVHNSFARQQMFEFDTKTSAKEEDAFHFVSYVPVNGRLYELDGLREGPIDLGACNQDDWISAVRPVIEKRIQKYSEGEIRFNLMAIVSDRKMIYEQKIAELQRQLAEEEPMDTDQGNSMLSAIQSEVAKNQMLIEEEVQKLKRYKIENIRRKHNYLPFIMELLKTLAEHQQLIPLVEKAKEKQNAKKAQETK
# [2] = biological target: T2, DUBs and other proteins in HEK293 cells (Homo sapiens, UniProt Q53GS9); assay: In-cell proteome-wide competitive ABPP, HEK293: other DUBs and proteins; details: replicates A-C; for Log2 reporter intensity values: USP39: DMSO substract (FC); for Log2 reporter intensity values: USP39, DMSO subtracted
# T2 sequence (Q53GS9 1-565): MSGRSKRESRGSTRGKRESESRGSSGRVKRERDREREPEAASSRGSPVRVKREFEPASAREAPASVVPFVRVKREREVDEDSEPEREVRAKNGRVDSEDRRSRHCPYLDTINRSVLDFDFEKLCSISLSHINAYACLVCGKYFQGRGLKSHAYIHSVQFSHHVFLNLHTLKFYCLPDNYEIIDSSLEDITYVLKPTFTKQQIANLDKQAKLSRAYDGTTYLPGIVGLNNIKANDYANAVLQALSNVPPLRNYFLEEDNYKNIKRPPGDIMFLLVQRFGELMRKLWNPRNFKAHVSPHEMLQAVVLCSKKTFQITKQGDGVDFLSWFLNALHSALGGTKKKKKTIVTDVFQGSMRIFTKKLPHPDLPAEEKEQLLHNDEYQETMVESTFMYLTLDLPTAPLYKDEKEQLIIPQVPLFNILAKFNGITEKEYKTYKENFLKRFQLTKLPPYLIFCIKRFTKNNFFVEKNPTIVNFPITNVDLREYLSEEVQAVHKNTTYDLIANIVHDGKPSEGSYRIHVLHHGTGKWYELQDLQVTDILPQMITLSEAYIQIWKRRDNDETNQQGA
# [3] = biological target: T3, DUBs and other proteins in HEK293 cells (Homo sapiens, UniProt Q96K76); assay: as above; details: replicates A-C; for Log2 reporter intensity values: USP47: DMSO substract (FC); for Log2 reporter intensity values: USP47, DMSO subtracted
# T3 sequence (Q96K76 1-1375): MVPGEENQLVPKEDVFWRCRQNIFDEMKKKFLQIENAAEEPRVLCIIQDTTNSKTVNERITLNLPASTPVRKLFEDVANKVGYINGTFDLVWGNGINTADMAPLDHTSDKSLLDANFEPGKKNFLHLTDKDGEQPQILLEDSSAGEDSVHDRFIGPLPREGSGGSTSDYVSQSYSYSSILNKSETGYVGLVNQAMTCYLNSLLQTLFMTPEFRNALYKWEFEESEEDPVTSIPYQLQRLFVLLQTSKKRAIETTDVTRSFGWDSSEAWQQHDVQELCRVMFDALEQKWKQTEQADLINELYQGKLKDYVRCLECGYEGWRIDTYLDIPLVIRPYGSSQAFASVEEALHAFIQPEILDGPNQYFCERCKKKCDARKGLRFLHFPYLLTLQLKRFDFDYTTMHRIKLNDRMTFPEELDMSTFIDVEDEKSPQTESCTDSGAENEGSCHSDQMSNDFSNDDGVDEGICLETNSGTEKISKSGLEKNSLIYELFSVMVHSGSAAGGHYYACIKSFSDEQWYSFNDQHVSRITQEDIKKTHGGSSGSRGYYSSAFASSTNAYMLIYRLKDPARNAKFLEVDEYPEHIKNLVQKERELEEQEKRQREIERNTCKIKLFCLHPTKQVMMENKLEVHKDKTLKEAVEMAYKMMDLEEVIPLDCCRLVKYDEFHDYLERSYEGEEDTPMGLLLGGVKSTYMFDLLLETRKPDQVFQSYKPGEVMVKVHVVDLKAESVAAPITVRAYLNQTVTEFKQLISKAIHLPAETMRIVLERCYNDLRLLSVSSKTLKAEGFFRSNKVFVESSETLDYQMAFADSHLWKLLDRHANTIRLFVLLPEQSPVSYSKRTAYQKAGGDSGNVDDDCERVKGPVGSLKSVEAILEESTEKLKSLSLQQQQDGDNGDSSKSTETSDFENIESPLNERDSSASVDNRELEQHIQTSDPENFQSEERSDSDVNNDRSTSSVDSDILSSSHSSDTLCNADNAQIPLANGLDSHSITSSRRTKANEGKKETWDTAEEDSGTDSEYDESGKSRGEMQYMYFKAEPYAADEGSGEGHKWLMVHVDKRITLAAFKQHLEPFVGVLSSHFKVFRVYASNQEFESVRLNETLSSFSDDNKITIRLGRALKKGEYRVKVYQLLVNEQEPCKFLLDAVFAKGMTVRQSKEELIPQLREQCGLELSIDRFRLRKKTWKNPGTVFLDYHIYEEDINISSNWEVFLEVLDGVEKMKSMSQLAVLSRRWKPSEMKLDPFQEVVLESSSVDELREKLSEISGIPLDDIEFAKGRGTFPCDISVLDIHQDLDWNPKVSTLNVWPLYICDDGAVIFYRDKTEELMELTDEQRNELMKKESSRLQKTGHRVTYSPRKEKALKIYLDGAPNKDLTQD
# [4] = 1 at 1 μM, competition with ABP 2
# [5] = 1 at 4 μM, competition with ABP 2
# [6] = 3 at 1 μM, competition with ABP 2
# [7] = 3 at 4 μM, competition with ABP 2
# [8] = LDN at 5 μM, competition with ABP 2
# [9] = LDN at 25 μM, competition with ABP 2
smiles,measurement,setting,value
N#CN1CCC[C@H]1C(=O)N1CCc2c(-c3c[nH]c4ncccc34)cccc21 [Compound 1],IC50,[1],> 10 µM
same,Log2 reporter intensity values: USP39,[2]; [4],1.016 and 0.9671 and 0.9953
same,Log2 reporter intensity values: USP39,[2]; [5],1.053 and 0.9437 and 0.9559
same,Log2 reporter intensity values,[2]; 1_1 μM,0.01573 and -0.03349 and -0.00527
same,Log2 reporter intensity values,[2]; 1_4 μM,0.0526 and -0.05693 and -0.04466
same,Log2 reporter intensity values,[2]; 1 at 1 μM,0.02338 and -0.04824 and -0.006739
same,Log2 reporter intensity values,[2]; 1 at 4 μM,0.0748 and -0.08363 and -0.065
same,Log2 reporter intensity values: USP47,[3]; [4],0.973 and 1.08 and 1.022
same,Log2 reporter intensity values: USP47,[3]; [5],1.072 and 1.012 and 0.9583
same,Log2 reporter intensity values,[3]; 1_1 μM,-0.02716 and 0.07955 and 0.02151
same,Log2 reporter intensity values,[3]; 1_4 μM,0.07173 and 0.01208 and -0.04184
same,Log2 reporter intensity values,[3]; 1 at 1 μM,-0.03956 and 0.1106 and 0.03085
same,Log2 reporter intensity values,[3]; 1 at 4 μM,0.1001 and 0.01747 and -0.0615
C#Cc1cnc2[nH]cc(-c3cccc4c3CCN4C(=O)[C@@H]3CCCN3C#N)c2c1 [Compound 2],Log2 reporter intensity values: USP39,[2]; 20 nM ABP 2 alone,0.9355 and 0.9539 and 0.9302
same,Log2 reporter intensity values,[2]; 20 nM ABP 2,-0.09621 and -0.06804 and -0.1044 and -0.06512 and -0.04668 and -0.07041
same,Log2 reporter intensity values: USP47,[3]; 20 nM ABP 2 alone,0.9076 and 0.9784 and 0.8828
same,Log2 reporter intensity values,[3]; 20 nM ABP 2,-0.1398 and -0.03153 and -0.1799 and -0.09247 and -0.02173 and -0.1173
N#CN1CCC[C@@H]1C(=O)N1CCc2c(-c3c[nH]c4ncccc34)cccc21 [Compound 3],IC50,[1],> 10 µM
same,Log2 reporter intensity values: USP39,[2]; [6],0.9789 and 0.9555 and 0.9911
same,Log2 reporter intensity values: USP39,[2]; [7],0.9367 and 1.076 and 1.058
same,Log2 reporter intensity values,[2]; 3_1 μM,-0.0217 and -0.04512 and -0.009501
same,Log2 reporter intensity values,[2]; 3_4 μM,-0.06394 and 0.07549 and 0.05768
same,Log2 reporter intensity values,[2]; 3 at 1 μM,-0.03075 and -0.0657 and -0.01288
same,Log2 reporter intensity values,[2]; 3 at 4 μM,-0.09439 and 0.1058 and 0.08174
same,Log2 reporter intensity values: USP47,[3]; [6],1.001 and 0.9758 and 1.097
same,Log2 reporter intensity values: USP47,[3]; [7],0.9921 and 1.112 and 1.049
same,Log2 reporter intensity values,[3]; 3_1 μM,0.0008917 and -0.02426 and 0.09736
same,Log2 reporter intensity values,[3]; 3_4 μM,-0.008057 and 0.1123 and 0.04861
same,Log2 reporter intensity values,[3]; 3 at 1 μM,0.001442 and -0.03527 and 0.1342
same,Log2 reporter intensity values,[3]; 3 at 4 μM,-0.01151 and 0.1537 and 0.06863
"CC(=O)O/N=C1\C(=O)N(Cc2cc(Cl)ccc2Cl)c2ccc(Cl)cc21 [LDN-57444, reference compound]",IC50,[1],> 10 µM
CC(=O)O/N=C1\C(=O)N(Cc2cc(Cl)ccc2Cl)c2ccc(Cl)cc21 [LDN],Log2 reporter intensity values: USP39,[2]; [8],1.029 and 1.043 and 0.9785
same,Log2 reporter intensity values: USP39,[2]; [9],1.07 and 1.069 and 1.033
same,Log2 reporter intensity values,[2]; LDN at 5 μM,0.04123 and 0.06024 and -0.03137
same,Log2 reporter intensity values,[2]; LDN at 25 μM,0.09762 and 0.09571 and 0.04713
same,Log2 reporter intensity values,[2]; LDN_5 μM,0.02838 and 0.04203 and -0.02212
same,Log2 reporter intensity values,[2]; LDN_25 μM,0.0694 and 0.06798 and 0.0326
same,Log2 reporter intensity values: USP47,[3]; [8],0.9979 and 0.9926 and 1.029
same,Log2 reporter intensity values: USP47,[3]; [9],1.08 and 1.079 and 1.007
same,Log2 reporter intensity values,[3]; LDN at 5 μM,-0.003055 and -0.01068 and 0.04147
same,Log2 reporter intensity values,[3]; LDN at 25 μM,0.1109 and 0.1092 and 0.01034
same,Log2 reporter intensity values,[3]; LDN_5 μM,-0.002223 and -0.007484 and 0.02905
same,Log2 reporter intensity values,[3]; LDN_25 μM,0.07978 and 0.07849 and 0.007088
